Entries after “also recorded” stand apart in the source; their conditions may differ. Where a name gives a salt, the structure may show the parent alone. Read-outs that look alike come from different tables or passages of the source.
How the values were obtained:
[1] = tested on: Platinum SuperFi DNA polymerase
Protocol: Yield and tolerance for urea in PCR master mix with different amines compared to the control master mix (with KCl) was evaluated by amplification of a 1 kb fragment from 42 ng of human genomic DNA template in 50 μl PCR reactions.
PCR master mix (1×) composition was 0.16 u/μL Platinum SuperFi DNA polymerase in 1× SuperFi buffer. In some experiments, 110 mM of KCl was substituted for solution comprising amines. […]
The PCR program used for the experiment is described in Table 4.
(§1) Products were detected by electrophoresis in a 1% TAE gels followed by staining with ethidium bromide.

[2] = tested on: Platinum SuperFi DNA polymerase; format: biochemical; settings: for yield of PCR product: up to 20 μl of Agencourt XP magnetic beads in 50 μl PCR reaction, amine instead of 110 mM KCl
Protocol: PCR yield and tolerance for magnetic beads in PCR master mix with different amines compared to the control master mix (with KCl) was evaluated by amplification of a 1 kb fragment from 42 ng of human genomic DNA template. PCR was performed in 50 μl PCR reactions in the presence of increasing amounts of magnetic beads.
The PCR master mix (1×) concentration of KCl (110 mM) was substituted for solution comprising an amine.
Agencourt XP magnetic beads were used in the experiment. From 5 to 35 μl of magnetic beads were washed 2 times with 80% EtOH and dried (an imitation of a protocol for purifying nucleic acids). Dried magnetic beads were resuspended in 50 μl of PCR reaction (complete with PCR master mix, DNA matrix, and primers). The forward primer was SEQ ID No: 3, and the reverse primer was SEQ ID No: 4.
as §1

[3] = tested on: mutant Taq DNA polymerase
Taq DNA polymerase = Taq DNA polymerase (Thermus aquaticus, UniProt P19821); format: biochemical
Chain of Taq DNA polymerase (P19821 whole entry): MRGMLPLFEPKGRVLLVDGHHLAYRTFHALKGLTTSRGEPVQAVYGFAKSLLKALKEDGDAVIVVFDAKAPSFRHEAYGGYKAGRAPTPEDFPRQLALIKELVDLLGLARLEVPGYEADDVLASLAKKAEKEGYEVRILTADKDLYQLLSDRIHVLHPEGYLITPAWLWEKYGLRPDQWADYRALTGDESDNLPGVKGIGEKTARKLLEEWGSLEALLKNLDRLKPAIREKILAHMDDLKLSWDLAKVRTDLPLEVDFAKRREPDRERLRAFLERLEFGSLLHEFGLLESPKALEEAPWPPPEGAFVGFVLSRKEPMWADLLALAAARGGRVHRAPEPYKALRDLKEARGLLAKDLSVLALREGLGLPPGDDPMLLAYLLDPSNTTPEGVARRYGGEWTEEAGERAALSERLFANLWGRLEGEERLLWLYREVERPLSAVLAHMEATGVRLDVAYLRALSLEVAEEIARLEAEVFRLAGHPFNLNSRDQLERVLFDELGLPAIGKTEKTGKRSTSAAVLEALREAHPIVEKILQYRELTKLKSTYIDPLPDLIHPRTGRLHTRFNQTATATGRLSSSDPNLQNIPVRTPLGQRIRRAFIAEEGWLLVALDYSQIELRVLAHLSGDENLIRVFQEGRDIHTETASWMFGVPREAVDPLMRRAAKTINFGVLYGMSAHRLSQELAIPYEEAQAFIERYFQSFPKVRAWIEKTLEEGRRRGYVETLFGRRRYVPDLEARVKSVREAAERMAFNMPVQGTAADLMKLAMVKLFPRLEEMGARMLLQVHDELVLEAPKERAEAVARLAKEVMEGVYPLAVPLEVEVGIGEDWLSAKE
Excerpt: A forward primer (SEQ ID No: 1) and a reverse primer (SEQ ID No: 2) were used with the PCR program described in Table 3. PCR products were detected by agarose gel electrophoresis followed by ethidium bromide staining

[4] = PCR buffers containing amine, PCR buffer 1: 0.04%
[5] = sodium citrate 0-0.08%, PCR buffers with 10, 40 or 50 mM amine
[6] = urea 0-230 mM, PCR buffers with 10, 40 or 50 mM amine

## CNC [dimethylamine hydrochloride]
[1]
  PCR yield: much higher
[2]
  tolerated amount of magnetic beads in the PCR reaction: increased the tolerated amount
  yield of PCR product: Increased yield
[2]; reaction buffer with 70, 80 or 90 mM KCl, part or all of the potassium salt replaced with amine, data not shown
  PCR product yield in the presence of magnetic beads: increased
[3]
  PCR product yield: increased
SuperFi DNA polymerase
  PCR product yield: increased

## CC(C)NC(C)C.Cl [diisopropylamine hydrochloride]
Taq DNA polymerase
  PCR product yield compared to PCR buffer 1 without amines: higher
Taq DNA polymerase; [4]
  sodium citrate concentration tolerated: 0.05%
Taq DNA polymerase; [5]
  PCR product yield compared with PCR buffer 1: Higher
Taq DNA polymerase; sodium citrate, PCR buffer 1: 0.04%
  greater tolerance to sodium citrate compared to PCR buffer 1: 1.25 times
Taq DNA polymerase; [6]
  PCR product yield compared with PCR buffer 1: increased
Taq DNA polymerase; urea, PCR buffer 1: 37 mM
  greater tolerance to urea compared with PCR buffer 1: 2.5 times

## CN(C)C [trimethylamine hydrochloride]
Taq DNA polymerase
  PCR product yield compared to PCR buffer 1 without amines: higher
Taq DNA polymerase; [4]
  sodium citrate concentration tolerated: 0.04%
Taq DNA polymerase; sodium citrate 0-0.08%, PCR buffers containing amine
  tolerance to sodium citrate compared with PCR buffer 1: same tolerance
Taq DNA polymerase; [5]
  PCR product yield compared with PCR buffer 1: Higher
Taq DNA polymerase; urea 0-230 mM, PCR buffers containing amine
  resistance to urea compared with PCR buffer 1: same resistance
Taq DNA polymerase; [6]
  PCR product yield compared with PCR buffer 1: increased
[2]
  yield of PCR product: Increased yield

## CCNCC.Cl [diethylamine hydrochloride]
Taq DNA polymerase
  PCR product yield compared to PCR buffer 1 without amines: higher
  greater tolerance to sodium citrate compared to PCR buffer 1: 1.25 times
  greater tolerance to urea compared with PCR buffer 1: 2.5 times
  sodium citrate concentration tolerated: 0.05%
Taq DNA polymerase; hydrochloride
  PCR product yield compared with PCR buffer 1: increased; also recorded: Higher
[1]
  PCR yield: much higher
  tolerance to urea compared to PCR buffer with KCl: Increased tolerance
[2]
  yield of PCR product: Increased yield
